Patent publication US20260200928A1, “THERAPEUTIC COMPOUNDS” (Sanofi, priority 2022, published 2026)

target: T1, human IL-17A (Homo sapiens, UniProt Q16552); experiment: IL-17A AlphaLISA competition assay (block of IL-17A binding to its receptor IL-17RA); settings: mean IC50 (n≥2), block of IL-17A binding to IL-17RA
T1 construct: purchased R&D Systems 7955-IL/CF
T1 sequence (Q16552 24-155): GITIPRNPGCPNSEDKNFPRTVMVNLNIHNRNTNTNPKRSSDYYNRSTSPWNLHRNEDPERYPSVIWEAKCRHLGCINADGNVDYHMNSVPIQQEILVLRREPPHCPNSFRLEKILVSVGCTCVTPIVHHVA
Outline: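 Human recombinant IL-17A (7.5 nM stock) pre-incubated 30 min at RT with compound, then IL-17RA/Fc (5 nM stock) added for 90 min; AlphaLISA read with anti-Fc acceptor beads, biotinylated anti-IL-17A antibody (5 nM) and streptavidin donor beads (3 h, dark). IC50 from 4-parameter logistic fit, normalised to DMSO and 4 μM reference inhibitor; n≥2.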

Compound	IC50
COC[C@H](c1ccnc(NC(=O)[C@H](COC(C)(C)C(F)(F)F)NC(=O)c2nocc2C)c1)N1C[C@@H](C(F)(F)F)NC1=O [Example 265, N—((S)-1-((4-((S)-2-methoxy-1-((S)-2-oxo-4-(trifluoromethyl)-imidazolidin-1-yl)ethyl)pyridin-2-yl)amino)-1-oxo-3-((1,1,1-trifluoro-2-methylpropan-2-yl)oxy)propan-2-yl)-4-methylisoxazole-3-carboxamide]	45 nM
CCc1nonc1C(=O)N[C@@H](COC(C)(C)C(F)(F)F)C(=O)Nc1cc([C@@H](COC)N2C[C@@H](C(F)(F)F)NC2=O)ccn1 [Example 266, 4-ethyl-N-((S)-1-((4-((S)-2-methoxy-1-((S)-2-oxo-4-(trifluoromethyl)imidazolidin-1-yl)ethyl)pyridin-2-yl)amino)-1-oxo-3-((1,1,1-trifluoro-2-methylpropan-2-yl)oxy)propan-2-yl)-1,2,5-oxadiazole-3-carboxamide]	15 nM
COC[C@H](c1ccnc(NC(=O)[C@H](COC(C)(C)C(F)(F)F)NC(=O)c2ccnn2C)c1)N1C[C@@H](C(F)(F)F)NC1=O [Example 271, N-((S)-1-((4-((S)-2-methoxy-1-((S)-2-oxo-4-(trifluoromethyl)imidazolidin-1-yl)ethyl)pyridin-2-yl)amino)-1-oxo-3-((1,1,1-trifluoro-2-methylpropan-2-yl)oxy)propan-2-yl)-1-methyl-1H-pyrazole-5-carboxamide]	36 nM
COC[C@H](c1ccnc(NC(=O)[C@H](COC(C)(C)C(F)(F)F)NC(=O)c2ccnn2C(C)C)c1)N1C[C@@H](C(F)(F)F)NC1=O [Example 272, 1-isopropyl-N-((S)-1-((4-((S)-2-methoxy-1-((S)-2-oxo-4-(trifluoromethyl)imidazolidin-1-yl)ethyl)pyridin-2-yl)amino)-1-oxo-3-((1,1,1-trifluoro-2-methylpropan-2-yl)oxy)propan-2-yl)-1H-pyrazole-5-carboxamide]	48 nM
Cc1nonc1C(=O)N[C@@H](COC(C)(C)C(F)(F)F)C(=O)Nc1cc(CN2C[C@@H](C(F)(F)F)NC2=O)ccn1 [Example 273, 4-methyl-N—((S)-1-oxo-1-((4-(((S)-2-oxo-4-(trifluoromethyl)-imidazolidin-1-yl)methyl)pyridin-2-yl)amino)-3-((1,1,1-trifluoro-2-methylpropan-2-yl)oxy)propan-2-yl)-1,2,5-oxadiazole-3-carboxamide]	403 nM
CC(C)(OC[C@H](NC(=O)c1nonc1C1CC1)C(=O)Nc1cc(CN2C[C@@H](C(F)(F)F)NC2=O)ccn1)C(F)(F)F [Example 274, 4-cyclopropyl-N-((S)-1-oxo-1-((4-(((S)-2-oxo-4-(trifluoromethyl)imidazolidin-1-yl)methyl)pyridin-2-yl)amino)-3-((1,1,1-trifluoro-2-methylpropan-2-yl)oxy)propan-2-yl)-1,2,5-oxadiazole-3-carboxamide]	75 nM
Cn1nccc1C(=O)N[C@@H](COC(C)(C)C(F)(F)F)C(=O)Nc1cc(CN2C[C@@H](C(F)(F)F)NC2=O)ccn1 [Example 275, 1-methyl-N-((S)-1-oxo-1-((4-(((S)-2-oxo-4-(trifluoromethyl)imidazolidin-1-yl)methyl)pyridin-2-yl)amino)-3-((1,1,1-trifluoro-2-methylpropan-2-yl)oxy)propan-2-yl)-1H-pyrazole-5-carboxamide]	946 nM
O=C(NC(C(=O)Nc1cc(CN2CC(C(F)(F)F)NC2=O)ccn1)C1CCC(F)CC1)c1nonc1C1CC1 [Example 292, 4-cyclopropyl-N-((S)-1-((1r,4S)-4-fluorocyclohexyl)-2-oxo-2-((4-(((S)-2-oxo-4-(trifluoromethyl)imidazolidin-1-yl)methyl)pyridin-2-yl)amino)ethyl)-1,2,5-oxadiazole-3-carboxamide]	104 nM
CCc1nocc1C(=O)N[C@H](C(=O)Nc1cc([C@@H](COC)N2C[C@@H](C(F)(F)F)NC2=O)ccn1)C1CCC(C(F)(F)F)CC1 (stereo partly drawn) [Example 300, 3-ethyl-N-((1S)-2-((4-((S)-2-methoxy-1-((S)-2-oxo-4-(trifluoromethyl)-imidazolidin-1-yl)ethyl)pyridin-2-yl)amino)-2-oxo-1-(4-(trifluoromethyl)-cyclohexyl)ethyl)isoxazole-4-carboxamide]	39 nM
COC[C@H](c1ccnc(NC(=O)[C@@H](NC(=O)c2ccnn2C)C2CCC(C(F)(F)F)CC2)c1)N1C[C@@H](C(F)(F)F)NC1=O (stereo partly drawn) [Example 302, N-((1S)-2-((4-((S)-2-methoxy-1-((S)-2-oxo-4-(trifluoromethyl)imidazolidin-1-yl)ethyl)pyridin-2-yl)amino)-2-oxo-1-(4-(trifluoromethyl)-cyclohexyl)ethyl)-1-methyl-1H-pyrazole-5-carboxamide]	44 nM
COC[C@H](c1ccnc(NC(=O)[C@@H](NC(=O)c2ccnn2C(C)C)C2CCC(Cl)CC2)c1)N1C[C@@H](C(F)(F)F)NC1=O (stereo partly drawn) [Example 312, N-((1S)-1-(4-chlorocyclohexyl)-2-((4-((S)-2-methoxy-1-((S)-2-oxo-4-(trifluoromethyl)imidazolidin-1-yl)ethyl)pyridin-2-yl)amino)-2-oxoethyl)-1-isopropyl-1H-pyrazole-5-carboxamide]	121 nM
COC[C@H](c1ccnc(NC(=O)[C@@H](NC(=O)c2conc2C)C2CCC(Cl)CC2)c1)N1C[C@@H](C(F)(F)F)NC1=O (stereo partly drawn) [Example 313, N-((1S)-1-(4-chlorocyclohexyl)-2-((4-((S)-2-methoxy-1-((S)-2-oxo-4-(trifluoromethyl)imidazolidin-1-yl)ethyl)pyridin-2-yl)amino)-2-oxoethyl)-3-methylisoxazole-4-carboxamide]	109 nM

More lines, in order of falling IC50, values ahead:

IC50	Compound
619 nM	Cc1nonc1C(=O)NC(C(=O)Nc1cc(CN2CC(C(F)(F)F)NC2=O)ccn1)C1CCC(F)CC1 [Example 291, N-((S)-1-((1r,4S)-4-fluorocyclohexyl)-2-oxo-2-((4-(((S)-2-oxo-4-(trifluoromethyl)imidazolidin-1-yl)methyl)pyridin-2-yl)amino)ethyl)-4-methyl-1,2,5-oxadiazole-3-carboxamide]
374 nM	Cn1nccc1C(=O)NC(C(=O)Nc1cc(CN2CC(C(F)(F)F)NC2=O)ccn1)C1CCC(F)CC1 [Example 294, N-((S)-1-((1r,4S)-4-fluorocyclohexyl)-2-oxo-2-((4-(((S)-2-oxo-4-(trifluoromethyl)imidazolidin-1-yl)methyl)pyridin-2-yl)amino)ethyl)-1-methyl-1H-pyrazole-5-carboxamide]
153 nM	CCn1nccc1C(=O)NC(C(=O)Nc1cc(CN2CC(C(F)(F)F)NC2=O)ccn1)C1CCC(F)CC1 [Example 293, 1-ethyl-N-((S)-1-((1r,4S)-4-fluorocyclohexyl)-2-oxo-2-((4-(((S)-2-oxo-4-(trifluoromethyl)imidazolidin-1-yl)methyl)pyridin-2-yl)amino)ethyl)-1H-pyrazole-5-carboxamide]
71 nM	CCn1nccc1C(=O)N[C@H](C(=O)Nc1cc([C@@H](COC)N2C[C@@H](C(F)(F)F)NC2=O)ccn1)C1CCC(Cl)CC1 (stereo partly drawn) [Example 310, N-((1S)-1-(4-chlorocyclohexyl)-2-((4-((S)-2-methoxy-1-((S)-2-oxo-4-(trifluoromethyl)imidazolidin-1-yl)ethyl)pyridin-2-yl)amino)-2-oxoethyl)-1-ethyl-1H-pyrazole-5-carboxamide]
38 nM	CCn1nccc1C(=O)N[C@H](C(=O)Nc1cc([C@@H](COC)N2C[C@@H](C(F)(F)F)NC2=O)ccn1)C1CCC(C(F)(F)F)CC1 (stereo partly drawn) [Example 301, 1-ethyl-N-((1S)-2-((4-((S)-2-methoxy-1-((S)-2-oxo-4-(trifluoromethyl)imidazolidin-1-yl)ethyl)pyridin-2-yl)amino)-2-oxo-1-(4-(trifluoromethyl)-cyclohexyl)ethyl)-1H-pyrazole-5-carboxamide]
31 nM	COC[C@H](c1ccnc(NC(=O)[C@H](COC(C)(C)C(F)(F)F)NC(=O)c2nonc2C)c1)N1C[C@@H](C(F)(F)F)NC1=O [Example 268, N-((S)-1-((4-((S)-2-methoxy-1-((S)-2-oxo-4-(trifluoromethyl)imidazolidin-1-yl)ethyl)pyridin-2-yl)amino)-1-oxo-3-((1,1,1-trifluoro-2-methylpropan-2-yl)oxy)propan-2-yl)-4-methyl-1,2,5-oxadiazole-3-carboxamide]
29 nM	CCn1nccc1C(=O)N[C@@H](COC(C)(C)C(F)(F)F)C(=O)Nc1cc([C@@H](COC)N2C[C@@H](C(F)(F)F)NC2=O)ccn1 [Example 270, 1-ethyl-N-((S)-1-((4-((S)-2-methoxy-1-((S)-2-oxo-4-(trifluoromethyl)imidazolidin-1-yl)ethyl)pyridin-2-yl)amino)-1-oxo-3-((1,1,1-trifluoro-2-methylpropan-2-yl)oxy)propan-2-yl)-1H-pyrazole-5-carboxamide]
27 nM	CCc1nocc1C(=O)N[C@@H](COC(C)(C)C(F)(F)F)C(=O)Nc1cc([C@@H](COC)N2C[C@@H](C(F)(F)F)NC2=O)ccn1 [Example 267, 3-ethyl-N-((S)-1-((4-((S)-2-methoxy-1-((S)-2-oxo-4-(trifluoromethyl)imidazolidin-1-yl)ethyl)pyridin-2-yl)amino)-1-oxo-3-((1,1,1-trifluoro-2-methylpropan-2-yl)oxy)propan-2-yl)isoxazole-4-carboxamide]
10 nM	COC[C@H](c1ccnc(NC(=O)[C@H](COC(C)(C)C(F)(F)F)NC(=O)c2nonc2C2CC2)c1)N1C[C@@H](C(F)(F)F)NC1=O [Example 269, 4-cyclopropyl-N-((S)-1-((4-((S)-2-methoxy-1-((S)-2-oxo-4-(trifluoromethyl)imidazolidin-1-yl)ethyl)pyridin-2-yl)amino)-1-oxo-3-((1,1,1-trifluoro-2-methylpropan-2-yl)oxy)propan-2-yl)-1,2,5-oxadiazole-3-carboxamide]
